Results: paper PMC6151710 (Molecules : A Journal of Synthetic Chemistry and Natural …, 2017)
Where two headings read alike, the source gives them in different places.

Legend:
[1] = Phase I metabolism in mice liver microsomes, metabolite quantitation by UPLC-MS/MS MRM; assay type: in vitro ADME
Protocol: (§1) Phase I Metabolism. […] Subsequently, 150 μL of NADPH solution (final concentration of 1 mM) was added to each reaction mixture. After incubation at 37 °C for 90 min in a shaking water bath, the reaction was terminated by adding 600 μL of ice-cold methanol. The contents were vortexed for 30 s and then centrifuged at 4000 rpm for 15 min. The metabolites of psoralen and isopsoralen in the supernatant were identified by UPLC-MS/MS.
(§2) Metabolite analysis by UPLC-MS/MS. The UPLC/MS/MS method was carried out using a Waters Acquity UPLC Sample Manager and a Waters Acquity UPLC Binary Solvent Manager connected to a Waters Quattro Premier XE triple-quadruple mass spectrometer equipped with a combined ESI probe and Mass Lynx 1.4 software (Waters, Milford, MA, USA). An Acquity UPLC BEH C18 column (1.7 µm, 2.1 mm × 100 mm) was used. The instrument settings were as follows: ESI+; source temperature, 120 °C; dissolution temperature, 350 °C; capillary voltage, 3.2 kV; dissolution N2, 600 L/h; cone N2, 50 L/h. Acquisition was carried out from m/z 50 Da to 1000 Da in the total ion scan mode. MS/MS spectra were acquired from m/z 50 Da to 600 Da in the daughter ion scan mode. The solvent system consisted of solvent A (0.1% CH3COOH) and solvent B (100% ACN). The flow rate was 0.2 mL/min. The gradient elution method was 5 to 80% B over 12 min, followed by 5% B from 12 to 15 min.
(§3) Quantitation analysis of psoralen and isopsoralen metabolites by UPLC-MS/MS. […] The HPLC method and electrospray ionization were performed with the same conditions as those for metabolite analysis by UPLC-MS/MS in liver microsomes, except for the cone (30 V) and collision energy (20 V).

[2] = Phase I metabolism in human liver microsomes, metabolite quantitation by UPLC-MS/MS MRM; assay type: in vitro ADME
Protocol: as §1, §2, §3

patients = tested on: patients; set-up: method as in doi:10.5021/ad.1995.7.1.51; details: 4 of 80 patients, within 3.5–20 months of commencement of PUVA 5-MOP; cited from earlier work
animals = tested on: animals; set-up: method as in PMID 19640237; details: 560 mg/kg daily for 12 days; cited from earlier work
KunMing (KM) mice = experiment: Hepatotoxicity study in mice (GSH-depleted by BSO, CYP450 inhibition by ABT): ALT, hepatic GSH, histopathology; details: for ALT activity with additional ABT treatment / histopathological evaluation of liver, with ABT: 300 mg/kg oral alone or with BSO, plus ABT 100 mg/kg i.p.; for hepatic GSH level with ABT: 300 mg/kg oral plus ABT 100 mg/kg i.p.; for histopathological evaluation of liver, co-treatment with BSO: 300 mg/kg oral plus BSO 650 mg/kg i.p., 6 or 24 h
Protocol: Male 6-week-old KunMing (KM) mice were purchased from the Animal Institute of the Tianjin University of Traditional Chinese Medicine (Tianjin, China), and were used after a 1-week acclimatization period. The animals were housed in mice cages in a unidirectional airflow room under controlled conditions (20–24 °C, 12:12-h light:dark cycles, and free access to water). We assured that all animals received humane care according to the criteria outlined in the “Guide for the Care and Use of Laboratory Animals” prepared by the National Academy of Sciences and published by the National Institutes of Health ((NIH) publication 86–23 revised 1985).
In the hepatotoxicity study, the mice were randomly assigned to 22 groups (n = 10/group). The mice were intraperitoneally injected with BSO (650 mg/kg) in saline (0.2 mL/20 g). The intraperitoneal dosing of ABT (100 mg/kg) in saline (0.2 mL/20 g) was simultaneous with the BSO dosing. […] Food was removed 14–16 h before BSO dosing, and was supplied again 6 h after administration of the test compounds. At 6 and 24 h, blood was collected by eyeball removal, and then the liver was removed. Plasma was separated from these blood samples, and alanine aminotransferase (ALT) was determined with a commercial kit, the GPT-UV test (Nanjing jiancheng Bioengineering Institute). A piece of each liver sample was fixed in 10% formalin, embedded in paraffin wax, sectioned, and stained with hematoxylin and eosin for histopathological evaluation.
Statistical analysis. The results from the serum ALT assay were analyzed by Kruskal–Wallis non-parametric analysis of variance followed by Mann–Whitney’s U test. For the data of the GSH assay and CYP450s relative activity, comparisons between the two groups were made by independent-samples t test. SPASS 11.5 was used for these statistical analyses. Differences were considered significant when p < 0.05 or p < 0.01.

mice = details: oral 40 mg daily for 28 days in mice; cited from earlier work
CYP3A4 = CYP3A4 (Homo sapiens, UniProt P08684); experiment: IC50 shift assay (pre-incubation with/without NADPH); assay type: in vitro ADME; details: for IC50: HLM; for IC50 Shift (fold): IC50 (−) NADPH versus (+) NADPH pre-incubation
CYP3A4, sequence (P08684 whole entry): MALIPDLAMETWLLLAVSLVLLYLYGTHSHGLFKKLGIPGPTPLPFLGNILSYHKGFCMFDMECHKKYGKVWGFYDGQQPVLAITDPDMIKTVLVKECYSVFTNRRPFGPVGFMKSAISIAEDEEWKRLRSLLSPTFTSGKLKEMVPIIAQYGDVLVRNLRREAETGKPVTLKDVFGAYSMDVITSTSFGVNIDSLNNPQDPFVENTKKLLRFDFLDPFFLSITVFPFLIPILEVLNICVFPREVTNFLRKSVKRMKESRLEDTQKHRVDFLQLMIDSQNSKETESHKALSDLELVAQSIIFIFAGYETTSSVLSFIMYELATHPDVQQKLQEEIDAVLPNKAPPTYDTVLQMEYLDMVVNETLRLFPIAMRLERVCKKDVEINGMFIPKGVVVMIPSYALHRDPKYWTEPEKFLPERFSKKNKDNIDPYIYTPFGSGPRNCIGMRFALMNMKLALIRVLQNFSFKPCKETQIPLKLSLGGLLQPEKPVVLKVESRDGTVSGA
Protocol: IC50 shift assay. In the present study, an IC50 shift assay was performed using a two-step procedure. […] After pre-incubation, a 0.02 mL aliquot of the mixture was added to a mixture containing a standard CYP substrate (final concentrations at the Km) in 0.18 mL of potassium phosphate buffer to measure CYP activities. After incubation for 15 min at 37 °C, the reactions were ceased by adding four volumes of pre-cooled methanol. The supernatants were centrifuged at 14,000 rpm for 15 min and then stored at −20 °C until the LC/MS/MS analysis of metabolites.
Analysis of samples. The LC/MS/MS method was conducted as described in [59].
IC50 value calculation. The IC50 value was calculated using GraphPad Prism (version 4.0) software (GraphPad Software, San Diego, CA, USA).

[3] = MRM mode, parent 50 μM, MLM 1.0 mg/mL, NADPH 1 mM, 90 min
[4] = MRM mode, parent 50 μM, HLM 1.0 mg/mL, NADPH 1 mM, 90 min
[5] = 300 mg/kg oral in combination with BSO 650 mg/kg i.p., 6 h
[6] = 300 mg/kg oral in combination with BSO 650 mg/kg i.p., 24 h

6-carboxymethyl-7-hydroxyl-coumarin [M′4]
Peak Area MLM [1, 3]: 96,828 | Peak Area HLM [2, 4]: 34,274

COc1c2ccoc2cc2oc(=O)ccc12 [5-MOP, 5-Methoxypsoralen]
patients with transient elevations of liver enzymes (patients): 5% | liver effect of high-dose treatment (animals): hepatocyte changes

CCCCS(=N)(=O)CCC(N)C(=O)O [BSO, L-buthi-onine-S, R-sulfoxinine, reference compound]
plasma ALT activity after sole treatment (KunMing (KM) mice; BSO 650 mg/kg i.p. or ABT 100 mg/kg i.p. alone, at 24 h): no significant changes | hepatic GSH level after treatment with BSO alone (KunMing (KM) mice; BSO 650 mg/kg i.p., over 24 h): time-dependent decrease at least for 6 h, while returning to a normal level at 24 h | liver hazard (pathological section) after BSO alone (KunMing (KM) mice; BSO 650 mg/kg i.p., over 24 h): without hazard to the liver

O=c1ccc2ccc3occc3c2o1 [Isopsoralen]
liver injury findings (mice): elevated serum ALT, AST, and/or ALP levels | ALT activity with additional ABT treatment (KunMing (KM) mice): completely suppressed the elevation of ALT activity | histopathological evaluation of liver, with ABT (KunMing (KM) mice): completely relieved the granular degeneration and vacuolation | plasma ALT activity (KunMing (KM) mice; [5]): 30.08 IU/L | plasma ALT activity (KunMing (KM) mice; [6]): 68.99 IU/L | hepatic GSH level with ABT (KunMing (KM) mice; at 24 h): ABT prevented the decrease | histopathological evaluation of liver, co-treatment with BSO (KunMing (KM) mice): did not aggravate the histopathology | histopathological evaluation of liver (KunMing (KM) mice; 300 mg/kg oral, alone, 6 h): weak granular degeneration | plasma ALT activity (KunMing (KM) mice; 300 mg/kg oral, alone, 6 h): 22.73 IU/L | histopathological evaluation of liver (KunMing (KM) mice; 300 mg/kg oral, alone, 24 h): diffuse vacuolation | plasma ALT activity (KunMing (KM) mice; 300 mg/kg oral, alone, 24 h): 43.20 IU/L | hepatic GSH level (KunMing (KM) mice; 300 mg/kg oral, alone, at 24 h): 9.94 ± 8.57 µM/g protein | IC50 (CYP3A4; IC50 (+) NADPH, 30 min pre-incubation with NADPH): 9.59 ± 1.04 µM | IC50 Shift (fold) (CYP3A4): 10.1 fold | IC50 Shift (fold) (CYP3A4; listed as isopsoralen): > 3 fold | IC50 (CYP3A4; IC50 (−) NADPH, 30 min pre-incubation without NADPH): 96.8 ± 2.21 µM

O=c1ccc2c(O)c3ccoc3cc2o1 [M1]
Peak Area MLM [1, 3]: 1019 | Peak Area HLM [2, 4]: 557

O=c1ccc2cc3ccoc3c(O)c2o1 [M2]
Peak Area MLM ([1]; mouse, microsomes, 1.5 h, 50 μM, pH 7.4): 8655 | Peak Area HLM ([2]; human, microsomes, 1.5 h, 50 μM, pH 7.4): 502

O=c1ccc2c(O)c3ccoc3c(O)c2o1 [M3]
Peak Area MLM [1, 3]: 164 | Peak Area HLM [2, 4]: 529

O=C(O)Cc1cc2ccc(=O)oc2cc1O [M4, 6-carboxymethyl-7-hydroxyl-coumarin]
Peak Area MLM [1, 3]: 98,864 | Peak Area HLM [2, 4]: 66,831

O=c1ccc2cc3c(cc2o1)OC(O)C3O (stereo not drawn) [M5]
Peak Area MLM [1, 3]: 102,180 | Peak Area HLM [2, 4]: 61,016

O=c1ccc2cc(O)c3occc3c2o1 [M′1]
Peak Area MLM [1, 3]: 14,513 | Peak Area HLM [2, 4]: 1288

O=c1ccc2c(O)cc3occc3c2o1 [M′2]
Peak Area MLM [1, 3]: 4707 | Peak Area HLM [2, 4]: 1349

O=C(O)/C=C\c1ccc2occc2c1O [M′3]
Peak Area MLM [1, 3]: 418 | Peak Area HLM [2, 4]: 312

O=c1ccc2ccc3c(c2o1)C(O)C(O)O3 (stereo not drawn) [M′5]
Peak Area MLM [1, 3]: 7725 | Peak Area HLM [2, 4]: 1627

O=c1ccc2cc3ccoc3cc2o1 [Psoralen]
ALT activity with additional ABT treatment (KunMing (KM) mice): completely suppressed the elevation of ALT activity | histopathological evaluation of liver, with ABT (KunMing (KM) mice): completely relieved the granular degeneration and vacuolation | plasma ALT activity (KunMing (KM) mice; [5]): 59.90 IU/L | plasma ALT activity (KunMing (KM) mice; [6]): 326.07 IU/L | hepatic GSH level with ABT (KunMing (KM) mice; at 24 h): ABT prevented the decrease | histopathological evaluation of liver, co-treatment with BSO (KunMing (KM) mice): did not aggravate the histopathology | histopathological evaluation of liver (KunMing (KM) mice; 300 mg/kg oral, alone, 6 h): diffuse granular degeneration | plasma ALT activity (KunMing (KM) mice; 300 mg/kg oral, alone, 6 h): 42.17 IU/L | histopathological evaluation of liver (KunMing (KM) mice; 300 mg/kg oral, alone, 24 h): diffuse vacuolation | plasma ALT activity (KunMing (KM) mice; 300 mg/kg oral, alone, 24 h): 128.42 IU/L | hepatic GSH level (KunMing (KM) mice; 300 mg/kg oral, alone, at 24 h): 11.26 ± 3.67 µM/g protein | IC50 (CYP3A4; 30 min pre-incubation with NADPH, read-out: IC50 (+) NADPH): 19.5 ± 1.04 µM | IC50 (CYP3A4; 30 min pre-incubation without NADPH, read-out: IC50 (−) NADPH): > 200 µM
